Laboratory results from patent US20240132480A1, “INHIBITORS OF MYCOBACTERIUM TUBERCULOSIS LIPOAMIDE DEHYDROGENASE” (Cornell University, priority 2021, published 2024).
Like-named read-outs stand apart in the source and are kept apart here.

How the values were obtained:
[1] = Microsomal clearance (hLM); conditions: human liver microsomes
Mtb Lpd = Mtb Lpd (Mycobacterium tuberculosis (strain ATCC 25618 / H37Rv), UniProt P9WHH9); assay type: biochemical
[2] = microsomes
[3] = 30 min preincubation, read-out: LPD IC50 (μM) w/ 30 min preincubation

SMILES | Human Liver Microsome Stability [1] | IC50 (Mtb Lpd; read-out: LPD IC50) | Human Liver Microsome Stability [2] | IC50 (Mtb Lpd; [3])
COc1ccc(NC(=O)CN(C)S(=O)(=O)c2cc(C)cc3cn[nH]c23)cc1Cl [Example 1, N-(3-chloro-4-methoxyphenyl)-2-((N,5-dimethyl-1H-indazole)-7-sulfonamido)acetamide] | >768 µL/min/mg |  |  | 
COc1ccc(NC(=O)[C@@H]2CCCN2S(=O)(=O)c2cc(C)cc3cn[nH]c23)cc1Cl [Example 4, (S)—N-(3-chloro-4-methoxyphenyl)-1-((5-methyl-1H-indazol-7-yl)sulfonyl)pyrrolidine-2-carboxamide] | 324 µL/min/mg | 0.39 µM |  | 
Cc1cc(S(=O)(=O)N2CCC[C@H]2C(=O)Nc2ccc(N3CCOCC3)c(Cl)c2)c2[nH]ncc2c1 [Example 5] | 133 µL/min/mg | 0.042 µM |  | 
CN(CC(=O)Nc1ccn(C)c(=O)c1)S(=O)(=O)c1cc(C(F)F)cc2c(F)n[nH]c12 [Example 183, 2-((5-(difluoromethyl)-3-fluoro-N-methyl-1H-indazole)-7-sulfonamido)-N-(1-methyl-2-oxo-1,2-dihydropyridin-4-yl)acetamide] |  | 0.231 µM | -15 µL/min/mg | 
O=C(Nc1ccc2c(c1)OCCN2C1COC1)[C@@H]1CCN1S(=O)(=O)c1cc(C(F)F)cc2c(F)n[nH]c12 [Example 184, (S)-1-((5-(difluoromethyl)-3-fluoro-1H-indazol-7-yl)sulfonyl)-N-(4-(oxetan-3-yl)-3,4-dihydro-2H-benzo[b][1,4]oxazin-7-yl)azetidine-2-carboxamide] |  | 0.148 µM | 36 µL/min/mg | 
O=C(Nc1ccc2c(c1)OCCN2C1CCOCC1)[C@@H]1CCN1S(=O)(=O)c1cc(C(F)F)cc2c(F)n[nH]c12 [Example 185] |  | 0.183 µM | 114 µL/min/mg | 
Cn1ccc(NC(=O)[C@@H]2CCN2S(=O)(=O)c2cc(C=O)cc3c(F)n[nH]c23)cc1=O [Example 186, (S)-1-((3-fluoro-5-formyl-1H-indazol-7-yl)sulfonyl)-N-(1-methyl-2-oxo-1,2-dihydropyridin-4-yl)azetidine-2-carboxamide] |  | 1.04 µM | 153 µL/min/mg | 
Cc1cc(S(=O)(=O)N2CC[C@H]2C(=O)Nc2ccn(C)c(=O)c2)c2[nH]c(C#N)cc2c1 [Example 187, (S)-1-((2-cyano-5-methyl-1H-indol-7-yl)sulfonyl)-N-(1-methyl-2-oxo-1,2-dihydropyridin-4-yl)azetidine-2-carboxamide] |  | 0.135 µM | -2 µL/min/mg | 
Cc1cc(S(=O)(=O)N2CC[C@@H]2C(=O)Nc2ccn(C)c(=O)c2)c2[nH]c(C#N)cc2c1 [Example 188, (R)-1-((2-cyano-5-methyl-1H-indol-7-yl)sulfonyl)-N-(1-methyl-2-oxo-1,2-dihydropyridin-4-yl)azetidine-2-carboxamide] |  | 8.85 µM | 5 µL/min/mg | 
Cc1cc(S(=O)(=O)N(C)CC(=O)Nc2ccc3c(c2)OCCN3C2COC2)c2[nH]c(C#N)cc2c1 [Example 189] |  | 0.076 µM | 142 µL/min/mg | 0.018 µM
O=C(Nc1ccc(N2CCOCC2)c(Cl)c1)[C@@H]1CCN1S(=O)(=O)c1cc(C(F)F)cc2cn[nH]c12 [Example 190, (S)—N-(3-chloro-4-morpholinophenyl)-1-((5-(difluoromethyl)-1H-indazol-7-yl)sulfonyl)azetidine-2-carboxamide] |  | 0.111 µM | 86 µL/min/mg | 
O=C(Nc1ccc(N2CCOCC2)c(Cl)c1)[C@H]1CCN1S(=O)(=O)c1cc(C(F)F)cc2cn[nH]c12 [Example 191, (2R)—N-(3-chloro-4-morpholino-phenyl)-1-[[5-(difluoromethyl)-1H-indazol-7-yl]sulfonyl]azetidine-2-carboxamide] |  | > 10 µM | 98 µL/min/mg | 
Cc1cc(S(=O)(=O)N(C)CC(=O)Nc2ccc(C3CCN(C4COC4)CC3)c(Cl)c2)c2[nH]ncc2c1 [Example 193, N-(3-chloro-4-(1-(oxetan-3-yl)piperidin-4-yl)phenyl)-2-((N,5-dimethyl-1H-indazole)-7-sulfonamido)acetamide] |  | 0.053 µM | 73 µL/min/mg | 
Cc1cc(S(=O)(=O)N(C)CC(=O)Nc2ccc(C3CCN(C)CC3)c(Cl)c2)c2[nH]ncc2c1 [Example 194] |  | 0.073 µM | 35 µL/min/mg | 
Cc1cc(S(=O)(=O)N2CC[C@H]2C(=O)Nc2ccc(N3CCOCC3)c(Cl)c2)c2[nH]c(C#N)cc2c1 [Example 195] |  | 0.111 µM | 64 µL/min/mg | 
Cc1cc(S(=O)(=O)N(C)CC(=O)Nc2ccc(N3CCOCC3)c(Cl)c2)c2[nH]c(C#N)cc2c1 [Example 198] |  | 0.087 µM | 137 µL/min/mg | 
Cc1cc(S(=O)(=O)N2CC[C@H]2C(=O)Nc2ccc(OCCN(C)C)c(Cl)c2)c2[nH]ncc2c1 [Example 199] |  | 0.186 µM | -7 µL/min/mg | 0.045 µM
CC#CCNC(=O)[C@@H]1CCN1S(=O)(=O)c1cc(C)cc2cn[nH]c12 [Example 200] |  | 0.379 µM | 13 µL/min/mg | 
C#CCNC(=O)[C@@H]1CCN1S(=O)(=O)c1cc(C)cc2cn[nH]c12 [Example 201] |  | 0.222 µM | 14 µL/min/mg | 
Cc1cc(S(=O)(=O)N2CC[C@H]2C(=O)NCC#N)c2[nH]ncc2c1 [Example 202] |  | 0.323 µM | 4 µL/min/mg | 

SMILES | Human Liver Microsome Stability [1] | IC50 (Mtb Lpd; read-out: LPD IC50) | Human Liver Microsome Stability [2] | IC50 (Mtb Lpd; [3])
Cc1cc(S(=O)(=O)N(C)CC(=O)NCC#Cc2ccccc2)c2[nH]ncc2c1 [Example 203] |  | 0.043 µM | 129 µL/min/mg | 
CC#CCNC(=O)CN(C)S(=O)(=O)c1cc(C)cc2cn[nH]c12 [Example 204] |  | 0.045 µM | 19 µL/min/mg | 0.024 µM
Cc1cc(S(=O)(=O)N2CC[C@H]2C(=O)NCC#Cc2ccccc2)c2[nH]ncc2c1 [Example 205] |  | 0.154 µM | 205 µL/min/mg | 
Cc1cc(S(=O)(=O)N2CC[C@H]2C(=O)Nc2ccc3c(c2)OCCN3C2COC2)c2[nH]c(C#N)cc2c1 [Example 206, (S)-1-((2-cyano-5-methyl-1H-indol-7-yl)sulfonyl)-N-(4-(oxetan-3-yl)-3,4-dihydro-2H-benzo[b][1,4]oxazin-7-yl)azetidine-2-carboxamide] |  | 0.081 µM | 111 µL/min/mg | 0.022 µM
Cc1cc(S(=O)(=O)N2CCC2C(=O)Nc2ccc(OCCN(C)C)c(C)c2)c2[nH]c(C#N)cc2c1 (stereo not shown) [Example 207] |  | 0.225 µM | -7 µL/min/mg | 0.06 µM
Cc1cc(S(=O)(=O)N(C)CC(=O)Nc2ccc3c(c2)N(C2COC2)CCO3)c2[nH]c(C#N)cc2c1 [Example 208] |  |  | 341 µL/min/mg | 0.015 µM
Cc1cc(S(=O)(=O)N2CC[C@H]2C(=O)Nc2ccc3c(c2)N(C2COC2)CCO3)c2[nH]c(C#N)cc2c1 [Example 209] |  |  | 212 µL/min/mg | 0.033 µM
COc1ccc(NC(=O)CN(C)S(=O)(=O)c2cc(C)cc3cc(C#N)[nH]c23)cc1Cl [Example 211, N-(3-chloro-4-methoxyphenyl)-2-((2-cyano-N,5-dimethyl-1H-indole)-7-sulfonamido)acetamide] |  |  | 358 µL/min/mg | 0.02 µM
CCc1ccc(NC(=O)CN(C)S(=O)(=O)c2cc(C)cc3cc(C#N)[nH]c23)cc1Cl [Example 212] |  |  | 210 µL/min/mg | 0.035 µM
COc1cc(NC(=O)CN(C)S(=O)(=O)c2cc(C)cc3cc(C#N)[nH]c23)ccn1 [Example 214, 2-((2-cyano-N,5-dimethyl-1H-indole)-7-sulfonamido)-N-(2-methoxypyridin-4-yl)acetamide] |  |  | 91 µL/min/mg | 0.021 µM
Cc1cc(S(=O)(=O)N(C)CC(=O)Nc2ccc(C3CC3)c(Cl)c2)c2[nH]c(C#N)cc2c1 [Example 215] |  |  | 203 µL/min/mg | 0.036 µM
COc1ccc(NC(=O)CN(C)S(=O)(=O)c2cc(C)cc3cc(C#N)[nH]c23)cn1 [Example 216, 2-((2-cyano-N,5-dimethyl-1H-indole)-7-sulfonamido)-N-(6-methoxypyridin-3-yl)acetamide] |  |  | 49 µL/min/mg | 0.02 µM
CC(=O)Nc1cccc(NC(=O)CN(C)S(=O)(=O)c2cc(C)cc3cc(C#N)[nH]c23)c1 [Example 217] |  |  | 177 µL/min/mg | 0.028 µM
Cc1cc(S(=O)(=O)N(C)CC(=O)NCC#Cc2ccccc2)c2[nH]c(C#N)cc2c1 [Example 218] |  |  | 191 µL/min/mg | 0.03 µM
Cc1cc(S(=O)(=O)N(C)CC(=O)Nc2cccc(N3CCCCC3=O)c2)c2[nH]c(C#N)cc2c1 [Example 219] |  |  | 150 µL/min/mg | 0.03 µM
CCCCNC(=O)CN(C)S(=O)(=O)c1cc(C)cc2cc(C#N)[nH]c12 [Example 223] |  |  | 62 µL/min/mg | 0.028 µM
Cc1cc(S(=O)(=O)N(C)CC(=O)Nc2cc(=O)n3c(n2)CCCC3)c2[nH]c(C#N)cc2c1 [Example 224, 2-((2-cyano-N,5-dimethyl-1H-indole)-7-sulfonamido)-N-(4-oxo-6,7,8,9-tetrahydro-4H-pyrido[1,2-a]pyrimidin-2-yl)acetamide] |  |  | 61 µL/min/mg | 0.022 µM
CN(CC(=O)Nc1ccn(C)c(=O)c1)S(=O)(=O)c1cc(Cl)cc2cc(C#N)[nH]c12 [Example 225] |  |  | 11 µL/min/mg | 0.035 µM
CC#CC(C)(C)NC(=O)CN(C)S(=O)(=O)c1cc(C)cc2cc(C#N)[nH]c12 [Example 229] |  |  | 160 µL/min/mg | 0.031 µM
